# Experimental data from patent US20200017495A1, “NOVEL HETEROCYCLIC COMPOUNDS AND THEIR USE IN PREVENTING OR TREATING BACTERIAL INFECTIONS” (priority 2017, published 2020).
# Test system: Klebsiella pneumoniae (KPN) isolates
# Assay: MIC of compounds alone and combined with antibacterials, broth microdilution (CLSI)
# Assay type: cell-based
# How it was run: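 Broth microdilution in cation-adjusted Mueller-Hinton broth, inoculum 5.10^5 CFU/mL, 16-20 h at 35° C in ambient air, on genotyped isolates. Compound MIC, alone or with an antibacterial, taken visually as lowest concentration preventing growth; antibacterial MIC determined at each compound concentration.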
structure (smiles),measurement,setting,value
"C=CC1=C(C(=O)O)N2C(=O)[C@@H](NC(=O)/C(=N\OCC(=O)O)c3csc(N)n3)[C@H]2SC1 [FIX, Cefixime]",MIC ATB in combination,"strain KPN 140347, with AF2 @ 8 μg/mL",>128 µg/mL
same,MIC ATB in combination,"strain KPN 140347, with AF3 @ 8 μg/mL",>128 µg/mL
same,MIC ATB in combination,"strain KPN 140347, with CLA @ 4 μg/mL",>128 µg/mL
same,MIC,"strain KPN 140513, genotype TEM-1, SHV-11, CTX-M-15, KPC-3",>128 µg/mL
same,MIC,"strain KPN 160143, genotype TEM-1, SHV-1, CTX-M-15, KPC-2, OXA-1",>128 µg/mL
same,MIC,"strain KPN 190128, genotype TEM-1, SHV-32, CTX-M-15, OXA-1",>128 µg/mL
same,MIC,"strain KPN 190270, compound alone",>128 µg/mL
same,MIC,"strain KPN 190270, genotype TEM-1, SHV-76, CTX-M-15, OXA-1",>128 µg/mL
same,MIC,"strain KPN 190425, genotype TEM-1, SHV-1, CTX-M-15, OXA-1",>128 µg/mL
same,MIC,"strain KPN 190551, genotype TEM-1, SHV-1, CTX-M-15, OXA-1",>128 µg/mL
same,MIC,"strain KPN 200047, genotype TEM-1, SHV-32, CTX-M-15, OXA-1",>128 µg/mL
same,MIC,"strain KPN 200327, genotype TEM-1, SHV-1, CTX-M-15, OXA-1",64 µg/mL
same,MIC,"strain KPN 260251, genotype TEM-1, SHV-11, SHV-12, CTX-M-15, KPC-2",>128 µg/mL
same,MIC,"strain KPN 260252, genotype TEM-1, SHV-11, KPC-3",>128 µg/mL
same,MIC,"strain KPN 260376, genotype SHV-1, SHV-49, OXA-1",>128 µg/mL
same,MIC,"strain KPN 270077, genotype TEM-1, SHV-1, CTX-M-15",>128 µg/mL
same,MIC,"strain KPN 700603, genotype SHV-18, OXA-2",16 µg/mL
same,MIC,"strain KPN ARA, genotype TEM-1, SHV-11, CTX-M-15, OXA-1, OXA-48",>128 µg/mL
same,MIC,"strain KPN BAA-1898, genotype TEM-1, SHV-11, SHV-12, KPC-2",>128 µg/mL
same,MIC,"strain KPN LIB, genotype SHV-11, OXA-48",<=0.25 μg/mL
same,MIC,"strain KPN UFR22_O, genotype TEM-1, SHV-1, OXA-48",<=0.25 μg/mL
same,MIC,"strain KPN UFR23, genotype TEM-1, SHV-1, OXA-48",<=0.25 μg/mL
same,MIC,"strain KPN UFR24, genotype TEM-1, SHV-2, SHV-11, OXA-1, OXA-48, OXA-47",>128 µg/mL
same,MIC,"strain KPN UFR25, compound alone",>128 µg/mL
same,MIC,"strain KPN UFR25, genotype TEM-1, SHV-11, CTX-M-15, OXA-162",>128 µg/mL
same,MIC,"strain KPN UFR27, genotype TEM-1, SHV-28, CTX-M-15, OXA-204",>128 µg/mL
same,MIC,"strain KPN UFR28, genotype TEM-1, SHV-1, CTX-M-15, OXA-1, OXA-232",256 µg/mL
same,MIC,"strain KPN UFR33, genotype TEM-2, SHV-12, CTX-M-15, OXA-1, OXA-10",>128 µg/mL
same,MIC,"strain KPN UFR42, genotype SHV-2, CTX-M-15 OXA-1, OXA-181, NDM-1",>128 µg/mL
same,MIC,"strain KPN UFR43, genotype SHV-11, CTX-M-15, CMY-2, OXA-1, NDM-1",>128 µg/mL
same,MIC,"strain KPN UFR46, genotype TEM-1, SHV-12, CTX-M-15, OXA-9, VIM-1",>128 µg/mL
same,MIC,"strain KPN UFR53, genotype TEM-1, IMP-1",>128 µg/mL
same,MIC,"strain KPN UFR65, genotype TEM-1, SHV-11, KPC-2",>128 µg/mL
same,MIC,"strain KPN UFR66, compound alone",512 µg/mL
same,MIC,"strain KPN UFR66, genotype TEM-1, SHV-11, CTX-M-15, KPC-2",512 µg/mL
same,MIC,"strain KPN UFR67, genotype TEM-1, SHV-11, KPC-3",>128 µg/mL
same,MIC,"strain KPN UFR68, compound alone",>128 µg/mL
same,MIC,"strain KPN UFR68, genotype TEM-1, SHV-11, CTX-M-15, KPC-3",>128 µg/mL
same,MIC,"strain KPN UFR76, genotype TEM-155, SHV-11, ACT-1, OXA-2",>128 µg/mL
same,MIC,"strain KPN UFR77, genotype CMY-2",128 µg/mL
same,MIC,"strain KPN UFR78, genotype TEM-1, SHV-1, CTX-M-15, CMY-2, OXA-1, OXA-48",>128 µg/mL
same,MIC,"strain KPN UFR79, genotype DHA-1, OXA-1",>128 µg/mL
same,MIC,"strain KPN UFR80, genotype SHV-11, DHA-1, OXA-1",<=0.25 μg/mL
same,MIC,"strain KPN UFR81, genotype TEM-1, SHV-1, DHA-1, OXA-48",>128 µg/mL
same,MIC,"strain KPN UFR162, genotype SHV-28, TEM-1, CTX-M-15, OXA-181, OXA-181, NDM-1, antibiotic alone",>128 µg/mL
same,MIC ATB in combination,"strain KPN UFR162, with AF2 @ 8 μg/mL",>128 µg/mL
same,MIC ATB in combination,"strain KPN UFR162, with AF3 @ 8 μg/mL",<0.25 µg/mL
same,MIC ATB in combination,"strain KPN UFR162, with CLA @ 4 μg/mL",>128 µg/mL
same,MIC,"strain KPN UFR163, genotype TEM-1, SHV-1, CTX-M-15, OXA-232, OXA-9, NDM-1, qnrB1, qepA, RmtB, antibiotic alone",>128 µg/mL
same,MIC ATB in combination,"strain KPN UFR163, with AF2 @ 8 μg/mL",>128 µg/mL
same,MIC ATB in combination,"strain KPN UFR163, with AF3 @ 8 μg/mL",<0.25 µg/mL
same,MIC ATB in combination,"strain KPN UFR163, with CLA @ 4 μg/mL",>128 µg/mL
same,MIC,"strain KPN UFR164, genotype SHV-11, CTX-M-15, OXA-1, OXA-181, NDM-1, antibiotic alone",>128 µg/mL
same,MIC ATB in combination,"strain KPN UFR164, with AF2 @ 8 μg/mL",>128 µg/mL
same,MIC ATB in combination,"strain KPN UFR164, with AF3 @ 8 μg/mL",>128 µg/mL
same,MIC ATB in combination,"strain KPN UFR164, with CLA @ 4 μg/mL",>128 µg/mL
same,MIC,"strain KPN UFR165, genotype TEM-1, SHV-11, CTX-M-15, OXA-1, OXA-181, NDM-1, antibiotic alone",>128 µg/mL
same,MIC ATB in combination,"strain KPN UFR165, with AF2 @ 8 μg/mL",64 µg/mL
same,MIC ATB in combination,"strain KPN UFR165, with AF3 @ 8 μg/mL",>128 µg/mL
same,MIC ATB in combination,"strain KPN UFR165, with CLA @ 4 μg/mL",>128 µg/mL
same,MIC,"strain KPN UFR166, genotype TEM-1, TEM-1, CTX-M-15, OXA-181, OXA-9, NDM-1, antibiotic alone",>128 µg/mL
same,MIC ATB in combination,"strain KPN UFR166, with AF2 @ 8 μg/mL",>128 µg/mL
same,MIC ATB in combination,"strain KPN UFR166, with AF3 @ 8 μg/mL",>128 µg/mL
same,MIC ATB in combination,"strain KPN UFR166, with CLA @ 4 μg/mL",>128 µg/mL
same,MIC,"strain KPN UFR167, genotype TEM-1, SHV-12, CTX-M-15, OXA-9, NDM-1, antibiotic alone",>128 µg/mL
same,MIC ATB in combination,"strain KPN UFR167, with AF2 @ 8 μg/mL",>128 µg/mL
same,MIC ATB in combination,"strain KPN UFR167, with AF3 @ 8 μg/mL",>128 µg/mL
same,MIC ATB in combination,"strain KPN UFR167, with CLA @ 4 μg/mL",>128 µg/mL
same,MIC,"strain KPN UFR168, genotype SHV-2, CTX-M-15, OXA-1, OXA-181, NDM-1, ArmA, antibiotic alone",>128 µg/mL
same,MIC ATB in combination,"strain KPN UFR168, with AF2 @ 8 μg/mL",>128 µg/mL
same,MIC ATB in combination,"strain KPN UFR168, with AF3 @ 8 μg/mL",>128 µg/mL
same,MIC ATB in combination,"strain KPN UFR168, with CLA @ 4 μg/mL",>128 µg/mL
same,MIC,"strain KPN UFR169, genotype TEM-1, SHV-28, CTX-M-15, CMY-4, OXA-1, NDM-1, antibiotic alone",>128 µg/mL
same,MIC ATB in combination,"strain KPN UFR169, with AF2 @ 8 μg/mL",>128 µg/mL
same,MIC ATB in combination,"strain KPN UFR169, with AF3 @ 8 μg/mL",>128 µg/mL
same,MIC ATB in combination,"strain KPN UFR169, with CLA @ 4 μg/mL",>128 µg/mL
same,MIC,"strain KPN UFR170, genotype TEM-1, SHV-28, CTX-M-15, CMY-6, OXA-1, OXA-9, NDM-1, antibiotic alone",>128 µg/mL
same,MIC ATB in combination,"strain KPN UFR170, with AF2 @ 8 μg/mL",<0.25 µg/mL
